US10328069B2, “Phosphatidylinositol 3-kinase inhibitors for the treatment of lymphoproliferative malignancies” (Exelixis, Inc., priority 2011, dated 2019)
Marks after values point to notes of the source that are not given here.

What was measured:
[1] = test system: downstream effectors of PI3K; experiment: Preclinical xenograft model studies: phosphorylation of downstream effectors of PI3K; assay type: in vivo; settings: preclinical xenograft models, well-tolerated doses
xenograft tumor = experiment: Preclinical xenograft model studies: tumor growth; assay type: in vivo; settings: preclinical xenograft models, well-tolerated doses
[2] = test system: downstream targets of PI3K, including pAKT and pEBP1; experiment: Phosphorylation of downstream targets of PI3K in vitro and in vivo
[3] = Phase 1 trial, lymphoma/CLL expansion cohort: safety and tolerability; assay type: in vivo, human
[4] = test system: relapsed/refractory lymphoma and CLL; experiment: Phase 1 trial, lymphoma/CLL expansion cohort: best response; assay type: in vivo, human
Method: As part of a phase 1 single agent study in solid tumors, we administered Compound A to a dedicated expansion cohort of patients with relapsed/refractory lymphoma and CLL. The drug was administered orally daily, with continuous dosing in monthly cycles. A total of 15 patients were enrolled at three centers. An initial cohort of 3 patients was enrolled, followed by a safety review, with subsequent enrollment of the remaining 12 subjects. The median age of the patients was 66 years (range 28-81), 40% were male and 60% female.
This was a Phase 1, open-label, non-randomized trial of Compound A given orally as a single agent in subjects with lymphoma.
The key eligibility include the following: • Histologically confirmed diagnosis of relapsed or refractory lymphoma • Measureable disease • Adequate bone marrow function defined as: • ANC≥1000/mm^3 (CLL with ALC≥100,000/mm^3 required to have ANC≥500/mm^3) • Platelets≥30,000/mm^3 • Hemoglobin≥8 g/dL • Archival or fresh tumor tissue • No prior therapy with a selective PI3K inhibitor • Written informed consent. Results

[5] = Phase 1 trial, lymphoma/CLL expansion cohort: plasma pharmacokinetics; assay type: in vivo, human; settings: 600 mg oral daily, cycle 1, eight patients
Source text: The secondary objectives were to determine (a) the plasma pharmacokinetics of Compound A; and (b) the pharmacodynamic effects of Compound A on tumor tissue.
There was inter-patient variability, and the geometric mean was 7.6 fold.

PI3K pathway = experiment: Phase 1 study in patients with solid tumors: pharmacodynamics in surrogate and tumor tissue; assay type: in vivo, human
Method: (§1) The maximum tolerated dose (MTD) was defined as 600 mg (capsule) once daily (QD) on either a 21/7 (administered continuously for 21 days followed by 7 days rest) or a continuous daily dosing schedule. […] A dose-escalation study of a tablet formulation is ongoing. Ten additional patients have been enrolled in the expansion cohort to better define the activity of Compound A, and further studies are warranted.

[6] = Phase 1 study in solid tumors: maximum tolerated dose and dose-limiting toxicities; assay type: in vivo
Method: as §1

class I PI3K isoform β = class I PI3K isoform β (Homo sapiens, UniProt P42338); settings: read-out: IC50 PI3K β
class I PI3K isoform γ = class I PI3K isoform γ (Homo sapiens, UniProt P48736); settings: read-out: IC50 PI3K γ
class I PI3K isoform δ = class I PI3K isoform δ (Homo sapiens, UniProt O00329); settings: read-out: IC50 PI3K δ
mTOR = mTOR (Homo sapiens, UniProt P42345); settings: read-out: IC50 mTOR
[7] = nineteen subjects, 600 mg capsule daily
[8] = nineteen subjects, unrelated to study drug
[9] = Hodgkin Lymphoma, n = 2 evaluated

Sequence of class I PI3K isoform β (P42338 whole entry, canonical isoform): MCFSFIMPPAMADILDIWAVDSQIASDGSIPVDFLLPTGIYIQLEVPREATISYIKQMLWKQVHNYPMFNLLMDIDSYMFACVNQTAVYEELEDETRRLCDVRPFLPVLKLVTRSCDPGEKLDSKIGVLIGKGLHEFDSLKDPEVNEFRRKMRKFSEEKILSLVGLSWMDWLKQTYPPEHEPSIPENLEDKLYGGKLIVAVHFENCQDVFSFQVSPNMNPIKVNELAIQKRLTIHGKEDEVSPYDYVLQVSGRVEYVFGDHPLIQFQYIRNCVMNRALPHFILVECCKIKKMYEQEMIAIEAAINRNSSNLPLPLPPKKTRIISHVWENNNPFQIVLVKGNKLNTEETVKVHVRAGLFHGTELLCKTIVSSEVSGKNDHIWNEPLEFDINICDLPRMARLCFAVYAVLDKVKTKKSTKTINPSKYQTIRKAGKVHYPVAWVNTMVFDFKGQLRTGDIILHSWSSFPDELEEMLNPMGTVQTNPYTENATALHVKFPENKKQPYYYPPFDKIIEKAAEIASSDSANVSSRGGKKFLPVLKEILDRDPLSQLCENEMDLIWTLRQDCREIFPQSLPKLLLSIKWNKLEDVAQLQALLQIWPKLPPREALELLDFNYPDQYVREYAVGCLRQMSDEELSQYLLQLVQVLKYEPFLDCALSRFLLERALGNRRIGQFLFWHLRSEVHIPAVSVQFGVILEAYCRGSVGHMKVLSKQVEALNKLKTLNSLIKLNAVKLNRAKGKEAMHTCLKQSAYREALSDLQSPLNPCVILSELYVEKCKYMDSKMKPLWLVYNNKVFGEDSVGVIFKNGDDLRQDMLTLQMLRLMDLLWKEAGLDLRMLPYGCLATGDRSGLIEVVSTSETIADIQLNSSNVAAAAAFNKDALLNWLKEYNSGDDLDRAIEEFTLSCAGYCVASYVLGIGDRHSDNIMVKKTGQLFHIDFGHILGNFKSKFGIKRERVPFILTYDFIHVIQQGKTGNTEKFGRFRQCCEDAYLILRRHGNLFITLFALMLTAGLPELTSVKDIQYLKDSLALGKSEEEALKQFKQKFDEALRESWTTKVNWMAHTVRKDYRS
Sequence of class I PI3K isoform β (P27986 whole entry partner, canonical isoform): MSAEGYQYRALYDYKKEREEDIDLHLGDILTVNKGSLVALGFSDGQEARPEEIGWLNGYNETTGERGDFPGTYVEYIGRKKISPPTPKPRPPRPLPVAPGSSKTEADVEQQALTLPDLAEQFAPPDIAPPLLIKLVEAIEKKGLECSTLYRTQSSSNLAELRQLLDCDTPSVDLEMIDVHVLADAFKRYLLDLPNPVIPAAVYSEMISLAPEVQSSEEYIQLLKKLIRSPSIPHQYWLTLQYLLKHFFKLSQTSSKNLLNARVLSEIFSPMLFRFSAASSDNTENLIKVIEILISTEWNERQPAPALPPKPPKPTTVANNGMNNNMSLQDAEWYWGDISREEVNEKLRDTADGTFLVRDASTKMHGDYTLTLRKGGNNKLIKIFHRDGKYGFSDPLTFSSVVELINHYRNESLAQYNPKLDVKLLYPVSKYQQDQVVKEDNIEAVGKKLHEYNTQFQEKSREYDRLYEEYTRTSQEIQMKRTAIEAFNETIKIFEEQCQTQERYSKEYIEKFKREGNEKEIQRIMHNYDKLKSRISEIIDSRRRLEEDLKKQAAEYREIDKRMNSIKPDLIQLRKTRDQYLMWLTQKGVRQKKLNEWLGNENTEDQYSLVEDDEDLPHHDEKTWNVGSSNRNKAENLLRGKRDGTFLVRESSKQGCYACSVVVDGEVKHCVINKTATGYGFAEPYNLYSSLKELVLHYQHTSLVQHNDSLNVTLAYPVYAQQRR
Sequence of class I PI3K isoform γ (P48736 whole entry, canonical isoform): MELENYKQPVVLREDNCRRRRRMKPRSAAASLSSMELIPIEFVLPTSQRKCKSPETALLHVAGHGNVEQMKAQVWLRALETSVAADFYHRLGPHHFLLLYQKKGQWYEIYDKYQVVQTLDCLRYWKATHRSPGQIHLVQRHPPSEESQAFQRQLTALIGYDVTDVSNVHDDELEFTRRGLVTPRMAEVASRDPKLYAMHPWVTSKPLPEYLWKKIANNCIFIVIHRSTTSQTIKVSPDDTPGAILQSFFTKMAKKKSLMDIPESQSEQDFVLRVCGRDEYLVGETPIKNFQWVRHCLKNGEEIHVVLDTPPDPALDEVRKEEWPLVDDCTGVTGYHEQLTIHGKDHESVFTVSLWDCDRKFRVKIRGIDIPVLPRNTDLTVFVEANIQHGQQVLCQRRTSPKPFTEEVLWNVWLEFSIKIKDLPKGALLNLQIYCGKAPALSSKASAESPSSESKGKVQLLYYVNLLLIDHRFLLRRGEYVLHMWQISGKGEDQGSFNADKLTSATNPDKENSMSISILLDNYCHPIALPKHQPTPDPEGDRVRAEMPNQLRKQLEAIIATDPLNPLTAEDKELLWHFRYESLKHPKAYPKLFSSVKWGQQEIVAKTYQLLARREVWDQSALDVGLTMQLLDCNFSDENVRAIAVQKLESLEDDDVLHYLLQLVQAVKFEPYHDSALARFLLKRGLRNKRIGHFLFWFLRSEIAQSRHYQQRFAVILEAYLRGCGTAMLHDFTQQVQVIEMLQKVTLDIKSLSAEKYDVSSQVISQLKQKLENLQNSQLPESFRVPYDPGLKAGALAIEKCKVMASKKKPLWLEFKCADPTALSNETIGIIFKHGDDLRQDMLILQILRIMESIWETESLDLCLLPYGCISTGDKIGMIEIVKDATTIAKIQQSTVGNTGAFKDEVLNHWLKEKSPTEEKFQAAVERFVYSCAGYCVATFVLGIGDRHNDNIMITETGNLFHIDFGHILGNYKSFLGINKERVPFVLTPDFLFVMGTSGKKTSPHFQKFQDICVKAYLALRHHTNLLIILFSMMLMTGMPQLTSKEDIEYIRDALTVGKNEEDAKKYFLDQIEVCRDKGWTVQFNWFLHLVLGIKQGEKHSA
Sequence of class I PI3K isoform δ (O00329 whole entry, canonical isoform): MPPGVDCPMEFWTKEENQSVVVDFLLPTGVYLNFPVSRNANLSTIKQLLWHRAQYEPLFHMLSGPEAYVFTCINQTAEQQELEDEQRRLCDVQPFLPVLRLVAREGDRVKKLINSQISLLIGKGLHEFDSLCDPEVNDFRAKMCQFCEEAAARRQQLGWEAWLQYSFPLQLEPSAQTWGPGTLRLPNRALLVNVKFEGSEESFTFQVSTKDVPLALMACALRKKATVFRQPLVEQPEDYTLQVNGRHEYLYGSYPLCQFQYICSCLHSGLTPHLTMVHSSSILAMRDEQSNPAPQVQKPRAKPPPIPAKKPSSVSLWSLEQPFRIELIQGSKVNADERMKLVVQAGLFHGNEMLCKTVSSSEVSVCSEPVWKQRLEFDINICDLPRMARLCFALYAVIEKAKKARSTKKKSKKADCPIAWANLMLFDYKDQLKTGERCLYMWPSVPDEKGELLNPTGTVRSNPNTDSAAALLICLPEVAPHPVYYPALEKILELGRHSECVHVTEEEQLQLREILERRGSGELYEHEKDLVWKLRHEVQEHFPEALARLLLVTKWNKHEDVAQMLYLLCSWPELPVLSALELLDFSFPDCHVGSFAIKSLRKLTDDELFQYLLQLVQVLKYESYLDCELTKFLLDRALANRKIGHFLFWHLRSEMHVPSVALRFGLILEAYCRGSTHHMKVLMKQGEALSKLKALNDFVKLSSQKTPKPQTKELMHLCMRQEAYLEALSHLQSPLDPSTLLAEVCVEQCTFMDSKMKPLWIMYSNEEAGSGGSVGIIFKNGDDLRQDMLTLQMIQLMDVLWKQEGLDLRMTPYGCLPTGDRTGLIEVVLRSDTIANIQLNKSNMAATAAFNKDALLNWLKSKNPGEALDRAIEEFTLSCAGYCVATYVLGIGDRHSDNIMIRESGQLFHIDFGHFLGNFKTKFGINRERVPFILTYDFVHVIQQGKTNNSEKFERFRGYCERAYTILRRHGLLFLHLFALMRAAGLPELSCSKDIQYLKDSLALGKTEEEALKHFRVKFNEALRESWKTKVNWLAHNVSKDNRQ
Sequence of class I PI3K isoform δ (P27986 whole entry partner, canonical isoform): as the sequence (P27986 whole entry partner, canonical isoform) above

With `COc1ccc(Cl)c(Nc2nc3ccccc3nc2NS(=O)(=O)c2cccc(NC(=O)C(C)(C)N)c2)c1` [Compound A, N-(3-{[(3-{[2-chloro-5-(methoxy)phenyl]amino}quinoxalin-2-yl)amino]sulfonyl}phenyl)-2-methylalaninamide] the “phosphorylation of downstream effectors of PI3K” value [1] was “inhibited phosphorylation of downstream effectors of PI3K”, the tumor growth (xenograft tumor) was “inhibited tumor growth” and the “phosphorylation of downstream targets of PI3K, including pAKT and pEBP1” value [2] was “inhibits phosphorylation”. The “grade 3-4 thrombocytopenia” value ([3]; 1/15 patients, oral daily continuous dosing) was 6.7%, the “hyperglycemia, grade 1-2 event” value ([3]; 1 of 15 patients) was 6.7% and the “hyperglycemia, grade 3-4 event” value ([3]; 1 of 15 patients) was 6.7%. The “grade 3-4 neutropenia” value ([3]; 4/15 patients, oral daily continuous dosing) was 26.7%, the “tolerability in patients with lymphoma and CLL” value ([3]; in vivo) was “well-tolerated” and the “Patients requiring dose modification due to toxicity: Hyperglycemia” value ([3]; nineteen subjects) was 1 (5) n (%). For the same compound, the “Patients requiring dose modification due to toxicity: Neutropenia” value ([3]; nineteen subjects) was 2 (11) n (%), the “Patients requiring dose modification due to toxicity: Rash” value ([3]; nineteen subjects) was 1 (5) n (%) and the “Abdominal Pain, All Adverse Events, All Grades” value [3, 7] was 4 (21) n (%). The “Abdominal Pain, All Adverse Events, Grade ≥3” value [3, 7] was 1 (5) n (%), the “Abdominal Pain, Related Adverse Events, All Grades” value [3, 7] was 2 (11) n (%) and the “Abdominal Pain, Related Adverse Events, Grade ≥3” value [3, 7] was 0 n (%). For the same compound, the “Anemia, All Adverse Events, All Grades” value [3, 7] was 4 (21) n (%), the “Anemia, All Adverse Events, Grade ≥3” value [3, 7] was 3 (16) n (%) and the “Anemia, Related Adverse Events, All Grades” value [3, 7] was 1 (5) n (%). The “Anemia, Related Adverse Events, Grade ≥3” value [3, 7] was 0 n (%), the “Cough, All Adverse Events, All Grades” value [3, 7] was 6 (32) n (%) and the “Cough, All Adverse Events, Grade ≥3” value [3, 7] was 1 (5) n (%). For the same compound, the “Cough, Related Adverse Events, All Grades” value [3, 7] was 0 n (%), the “Cough, Related Adverse Events, Grade ≥3” value [3, 7] was 0 n (%) and the “Diarrhea, All Adverse Events, All Grades” value [3, 7] was 12 (63) n (%). For the same compound, the “Diarrhea, All Adverse Events, Grade ≥3” value [3, 7] was 1 (5) n (%), the “Diarrhea, Related Adverse Events, All Grades” value [3, 7] was 7 (37) n (%) and the “Diarrhea, Related Adverse Events, Grade ≥3” value [3, 7] was 1 (5) n (%). The “Dyspnea, All Adverse Events, All Grades” value [3, 7] was 4 (21) n (%), the “Dyspnea, All Adverse Events, Grade ≥3” value [3, 7] was 1 (5) n (%) and the “Dyspnea, Related Adverse Events, All Grades” value [3, 7] was 0 n (%). The “Dyspnea, Related Adverse Events, Grade ≥3” value [3, 7] was 0 n (%), the “Fatigue, All Adverse Events, All Grades” value [3, 7] was 5 (26) n (%) and the “Fatigue, All Adverse Events, Grade ≥3” value [3, 7] was 0 n (%). The “Fatigue, Related Adverse Events, All Grades” value [3, 7] was 0 n (%), the “Fatigue, Related Adverse Events, Grade ≥3” value [3, 7] was 0 n (%) and the “Hyperglycemia, All Adverse Events, All Grades” value [3, 7] was 4 (21) n (%). For the same compound, the “Hyperglycemia, All Adverse Events, Grade ≥3” value [3, 7] was 1 (5) n (%), the “Hyperglycemia, Related Adverse Events, All Grades” value [3, 7] was 4 (21) n (%) and the “Hyperglycemia, Related Adverse Events, Grade ≥3” value [3, 7] was 1 (5) n (%). For the same compound, the “Neutropenia, All Adverse Events, All Grades” value [3, 7] was 5 (26) n (%), the “Neutropenia, All Adverse Events, Grade ≥3” value [3, 7] was 5 (26) n (%) and the “Neutropenia, Related Adverse Events, All Grades” value [3, 7] was 4 (21) n (%). The “Neutropenia, Related Adverse Events, Grade ≥3” value [3, 7] was 4 (21) n (%), the “Pruritus, All Adverse Events, All Grades” value [3, 7] was 4 (21) n (%) and the “Pruritus, All Adverse Events, Grade ≥3” value [3, 7] was 1 (5) n (%). The “Pruritus, Related Adverse Events, All Grades” value [3, 7] was 2 (11) n (%), the “Pruritus, Related Adverse Events, Grade ≥3” value [3, 7] was 0 n (%) and the “Pyrexia, All Adverse Events, All Grades” value [3, 7] was 5 (26) n (%). The “Pyrexia, All Adverse Events, Grade ≥3” value [3, 7] was 1 (5) n (%), the “Pyrexia, Related Adverse Events, All Grades” value [3, 7] was 1 (5) n (%) and the “Pyrexia, Related Adverse Events, Grade ≥3” value [3, 7] was 0 n (%). For the same compound, the “Rash, All Adverse Events, All Grades” value [3, 7] was 4 (21) n (%), the “Rash, All Adverse Events, Grade ≥3” value [3, 7] was 1 (5) n (%) and the “Rash, Related Adverse Events, All Grades” value [3, 7] was 3 (16) n (%). The “Rash, Related Adverse Events, Grade ≥3” value [3, 7] was 1 (5) n (%), the “Patients requiring dose modification due to toxicity” value ([3]; nineteen subjects, total) was 7 (37) n (%) and the “Patients requiring dose modification due to toxicity: More than 1 event in the same patient” value ([3]; nineteen subjects, diarrhea, fever/pneumonia, fever/pneumonia/sepsis/ileus/fluid overload) was 1 (5) n (%). The “Patients requiring dose modification due to toxicity: Fever/hypotension” value [3, 8] was 1 (5) n (%), the “Patients requiring dose modification due to toxicity: Respiratory infection” value [3, 8] was 1 (5) n (%) and the “best response Stable Disease, number of patients” value (“best response Stable Disease” for short) ([4]; CLL/SLL, n = 5 evaluated, 600 mg capsule once daily, after cycle 2) was 5^b. For the same compound, the “best response Stable Disease” value ([4]; Follicular Lymphoma, n = 2 evaluated, 600 mg capsule once daily) was 2^, the “best response Progressive Disease, number of patients” value [4, 9] was 1 and the “best response Stable Disease” value [4, 9] was 1^e. The “best response Stable Disease” value ([4]; Transformed Lymphoma, n = 1 evaluated) was 1^d, the “best response Complete Response, number of patients” value ([4]; Waldenstrom's Macroglobulinemia, n = 1 evaluated, complete response at cycle 14) was 1^c and the activity in patients ([4]; in vivo) was “active in CLL and low-grade lymphomas”. The “geometric mean accumulation (AUC) on day 28” value [5] was 7.6 fold, the “mean (CV %) accumulation (AUC) on day 28” value ([5]; CV 88.1%) was “approximately 11.2 fold” and the effect as monotherapy (PI3K pathway; human, in vivo) was “primarily anti-proliferative, not pro-apoptotic”. For the same compound, the “PI3K pathway activation in surrogate tissue (PBMC, hair follicle, skin) and tumor tissue” value (PI3K pathway; once daily, patients with solid tumors) was “inhibited PI3K pathway activation”, the “PI3K and ERK pathway inhibition” value (PI3K pathway; well-tolerated doses) was “robust PI3K and ERK pathway inhibition” and the “maximum tolerated dose (MTD)” value ([6]; capsule, once daily (QD), 21/7 or continuous daily dosing schedule) was 600 mg. For the same compound, the dose-limiting toxicities ([6]; human, in vivo) was “Grade 3 rash and Grade 3 hypersensitivity”, the IC50 (class I PI3K isoform β) was 383 nM and the IC50 (class I PI3K isoform γ) was 36 nM. For the same compound, the IC50 (class I PI3K isoform δ) was 23 nM and the IC50 (mTOR) was over 15000 nM.
